ChEMBL document CHEMBL1821719, “2,7-disubstituted-pyrrolo[2,1-f][1,2,4]triazines: new variant of an old template and application to the discovery of anaplastic lymphoma kinase (ALK) inhibitors with in vivo antitumor activity” (J Med Chem, 2011)
Blank lines part the entries; values can stand above or below the compound they belong to.

Experiments:
[1] = biological target: ALK tyrosine kinase receptor (Homo sapiens, UniProt Q9UM73); assay: Inhibition of human recombinant ALK assessed as phosphorylated product using PLC-gamma/GST substrate by modified ELISA method
Insulin receptor = Insulin receptor (Homo sapiens, UniProt P06213); assay: Inhibition of IR
[2] = biological target: NPM/ALK (Nucleophosmin/ALK tyrosine kinase receptor) (Homo sapiens, UniProt Q9UM73); assay: Inhibition of NPM/ALK phosphorylation in human KARPAS299 cells by ELISA; format: cell-based, KARPAS-299
[3] = Oral bioavailability in Sprague-Dawley rat; format: ADME, organism-based; details: in vivo
[4] = Antitumor activity against human SUP-M2 cells xenografted into SCID mouse at 30 mg/kg, po bid; format: functional; details: read-out: TGI
[5] = Antitumor activity against human SUP-M2 cells xenografted into SCID mouse at 55 mg/kg, po administered bid; format: functional; details: read-out: TGI
Mus musculus [6] = assay: Toxicity in SCID mouse assessed as weight loss at 10 mg/kg, po bid; format: organism-based; set-up: dose 10 mg/kg, route oral; details: in vivo
Mus musculus [7] = assay: Toxicity in SCID mouse assessed as weight loss at 30 mg/kg, po bid; format: organism-based; set-up: dose 30 mg/kg, route oral; details: in vivo
Mus musculus [8] = assay: Toxicity in SCID mouse assessed as weight loss at 55 mg/kg, po bid; format: organism-based; set-up: dose 55 mg/kg, route oral; details: in vivo
[9] = AUC in SCID mouse at 10 mg/kg, po; format: ADME, organism-based; set-up: dose 10 mg/kg, route oral; details: plasma
[10] = AUC in Sprague-Dawley rat at 5 mg/kg, po; format: ADME, organism-based; set-up: dose 5 mg/kg, route oral; details: plasma
[11] = Oral bioavailability in SCID mouse at 10 mg/kg; format: ADME, organism-based; details: in vivo
[12] = Oral bioavailability in Sprague-Dawley rat at 5 mg/kg; format: ADME, organism-based; details: in vivo
[13] = Inhibition of NPM-ALK phosphorylation in SUP-M2 cells xenografted in SCID mouse at 30 mg/kg, po measured upto 12 hrs by immunoblotting; format: functional; details: SUP-M2, 12 h
[14] = Drug level in human SUP-M2 cells xenografted SCID mouse tumor at 30 mg/kg, po after 2 hrs by LC/MS analysis; format: ADME, organism-based, Neoplasm; set-up: dose 30 mg/kg, route oral; details: read-out: Drug uptake
[15] = Drug level in human SUP-M2 cells xenografted SCID mouse tumor at 30 mg/kg, po after 6 hrs by LC/MS analysis; format: ADME, organism-based, Neoplasm; set-up: dose 30 mg/kg, route oral; details: read-out: Drug uptake
[16] = Drug level in human SUP-M2 cells xenografted SCID mouse tumor at 30 mg/kg, po after 12 hrs by LC/MS analysis; format: ADME, organism-based, Neoplasm; set-up: dose 30 mg/kg, route oral; details: read-out: Drug uptake
[17] = Drug level in human SUP-M2 cells xenografted SCID mouse tumor at 30 mg/kg, po after 24 hrs by LC/MS analysis; format: ADME, organism-based, Neoplasm; set-up: dose 30 mg/kg, route oral; details: read-out: Drug uptake
[18] = Plasma concentration in human SUP-M2 cells xenografted SCID mouse at 30 mg/kg, po measured after 2 hrs by LC/MS analysis; format: ADME, organism-based; set-up: dose 30 mg/kg, route oral
[19] = Plasma concentration in human SUP-M2 cells xenografted SCID mouse at 30 mg/kg, po measured after 6 hrs by LC/MS analysis; format: ADME, organism-based; set-up: dose 30 mg/kg, route oral
[20] = Plasma concentration in human SUP-M2 cells xenografted SCID mouse at 30 mg/kg, po measured after 12 hrs by LC/MS analysis; format: ADME, organism-based; set-up: dose 30 mg/kg, route oral
[21] = Plasma concentration in human SUP-M2 cells xenografted SCID mouse at 30 mg/kg, po measured after 24 hrs by LC/MS analysis; format: ADME, organism-based; set-up: dose 30 mg/kg, route oral
[22] = Drug level in human SUP-M2 cells xenografted SCID mouse tumor at 10 mg/kg, po bid for 12 days measured after 2 hrs of final dose by LC/MS analysis; format: ADME, organism-based, Neoplasm; set-up: dose 10 mg/kg, route oral; details: read-out: Drug uptake
[23] = Drug level in human SUP-M2 cells xenografted SCID mouse tumor at 30 mg/kg, po bid for 12 days measured after 2 hrs of final dose by LC/MS analysis; format: ADME, organism-based, Neoplasm; set-up: dose 30 mg/kg, route oral; details: read-out: Drug uptake
[24] = Plasma concentration in human SUP-M2 cells xenografted SCID mouse at 10 mg/kg, po bid for 12 days measured after 2 hrs of final dose by LC/MS analysis; format: ADME, organism-based; set-up: dose 10 mg/kg, route oral
[25] = Plasma concentration in human SUP-M2 cells xenografted SCID mouse at 30 mg/kg, po bid for 12 days measured after 2 hrs of final dose by LC/MS analysis; format: ADME, organism-based; set-up: dose 30 mg/kg, route oral
[26] = Plasma concentration in human SUP-M2 cells xenografted SCID mouse at 55 mg/kg, po bid for 12 days measured after 2 hrs of final dose by LC/MS analysis; format: ADME, organism-based; set-up: dose 55 mg/kg, route oral
[27] = Antitumor activity against human SUP-M2 cells xenografted into SCID mouse at 10 mg/kg, po bid; format: functional; details: read-out: TGI
KARPAS-299 = assay: Antiproliferative activity against human KARPAS299 cells by MTS assay; format: functional, cell-based
[28] = Antiproliferative activity against human SUP-M2 cells after 48 hrs by MTS assay; format: functional, cell-based; details: SUP-M2, 48 h
[29] = Apparent permeability from apical to basolateral side of human Caco2 cells; format: ADME, cell-based; details: Caco-2
[30] = Volume of distribution in SCID mouse at 1 mg/kg, iv; format: ADME, organism-based; set-up: dose 1 mg/kg, route intravenous; details: in vivo
[31] = Volume of distribution in Sprague-Dawley rat at 1 mg/kg, iv; format: ADME, organism-based; set-up: dose 1 mg/kg, route intravenous; details: in vivo
[32] = AUC in SCID mouse at 1 mg/kg, iv; format: ADME, organism-based; set-up: dose 1 mg/kg, route intravenous; details: plasma
[33] = AUC in Sprague-Dawley rat at 1 mg/kg, iv; format: ADME, organism-based; set-up: dose 1 mg/kg, route intravenous; details: plasma
[34] = Tmax in SCID mouse at 10 mg/kg, po; format: ADME, organism-based; set-up: dose 10 mg/kg, route oral; details: in vivo
[35] = Tmax in Sprague-Dawley rat at 5 mg/kg, po; format: ADME, organism-based; set-up: dose 5 mg/kg, route oral; details: in vivo

Chain of Insulin receptor (P06213 28-758 limits assumed): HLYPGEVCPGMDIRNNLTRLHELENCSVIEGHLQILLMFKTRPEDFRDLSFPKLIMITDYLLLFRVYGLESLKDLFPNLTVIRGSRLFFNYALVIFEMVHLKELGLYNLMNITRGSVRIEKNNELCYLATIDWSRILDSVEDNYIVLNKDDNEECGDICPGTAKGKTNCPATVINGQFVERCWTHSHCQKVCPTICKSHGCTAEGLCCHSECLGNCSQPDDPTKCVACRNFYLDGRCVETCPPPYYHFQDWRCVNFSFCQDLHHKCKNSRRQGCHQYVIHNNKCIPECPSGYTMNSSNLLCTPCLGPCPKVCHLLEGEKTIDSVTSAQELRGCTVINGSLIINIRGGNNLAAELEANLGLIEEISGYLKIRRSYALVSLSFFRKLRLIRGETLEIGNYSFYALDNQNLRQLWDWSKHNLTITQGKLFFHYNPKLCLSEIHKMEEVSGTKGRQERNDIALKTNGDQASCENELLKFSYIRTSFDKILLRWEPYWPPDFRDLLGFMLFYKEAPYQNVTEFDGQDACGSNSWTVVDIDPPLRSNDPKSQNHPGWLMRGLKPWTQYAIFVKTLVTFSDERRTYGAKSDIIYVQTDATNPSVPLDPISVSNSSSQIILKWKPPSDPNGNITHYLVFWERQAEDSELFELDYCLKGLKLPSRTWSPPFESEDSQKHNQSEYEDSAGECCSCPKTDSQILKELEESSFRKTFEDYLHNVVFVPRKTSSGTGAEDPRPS
Chain of Insulin receptor (P06213 763-1382 limits assumed): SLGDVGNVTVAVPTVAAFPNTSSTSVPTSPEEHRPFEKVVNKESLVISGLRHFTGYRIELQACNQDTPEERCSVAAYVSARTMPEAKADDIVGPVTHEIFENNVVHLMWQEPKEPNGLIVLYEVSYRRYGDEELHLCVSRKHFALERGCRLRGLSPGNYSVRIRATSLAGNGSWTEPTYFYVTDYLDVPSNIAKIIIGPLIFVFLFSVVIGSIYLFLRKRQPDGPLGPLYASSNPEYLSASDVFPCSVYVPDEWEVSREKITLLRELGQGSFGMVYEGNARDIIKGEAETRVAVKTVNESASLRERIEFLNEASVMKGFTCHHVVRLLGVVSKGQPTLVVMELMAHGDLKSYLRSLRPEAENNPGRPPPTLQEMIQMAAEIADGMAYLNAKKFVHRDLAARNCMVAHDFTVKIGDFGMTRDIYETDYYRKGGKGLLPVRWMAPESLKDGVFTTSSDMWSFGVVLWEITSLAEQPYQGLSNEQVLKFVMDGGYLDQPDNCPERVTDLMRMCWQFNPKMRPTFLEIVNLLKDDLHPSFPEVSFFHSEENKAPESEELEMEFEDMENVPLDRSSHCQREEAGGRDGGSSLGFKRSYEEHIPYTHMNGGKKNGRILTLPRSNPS
Chain of NPM/ALK (Nucleophosmin/ALK tyrosine kinase receptor) (Q9UM73 whole entry): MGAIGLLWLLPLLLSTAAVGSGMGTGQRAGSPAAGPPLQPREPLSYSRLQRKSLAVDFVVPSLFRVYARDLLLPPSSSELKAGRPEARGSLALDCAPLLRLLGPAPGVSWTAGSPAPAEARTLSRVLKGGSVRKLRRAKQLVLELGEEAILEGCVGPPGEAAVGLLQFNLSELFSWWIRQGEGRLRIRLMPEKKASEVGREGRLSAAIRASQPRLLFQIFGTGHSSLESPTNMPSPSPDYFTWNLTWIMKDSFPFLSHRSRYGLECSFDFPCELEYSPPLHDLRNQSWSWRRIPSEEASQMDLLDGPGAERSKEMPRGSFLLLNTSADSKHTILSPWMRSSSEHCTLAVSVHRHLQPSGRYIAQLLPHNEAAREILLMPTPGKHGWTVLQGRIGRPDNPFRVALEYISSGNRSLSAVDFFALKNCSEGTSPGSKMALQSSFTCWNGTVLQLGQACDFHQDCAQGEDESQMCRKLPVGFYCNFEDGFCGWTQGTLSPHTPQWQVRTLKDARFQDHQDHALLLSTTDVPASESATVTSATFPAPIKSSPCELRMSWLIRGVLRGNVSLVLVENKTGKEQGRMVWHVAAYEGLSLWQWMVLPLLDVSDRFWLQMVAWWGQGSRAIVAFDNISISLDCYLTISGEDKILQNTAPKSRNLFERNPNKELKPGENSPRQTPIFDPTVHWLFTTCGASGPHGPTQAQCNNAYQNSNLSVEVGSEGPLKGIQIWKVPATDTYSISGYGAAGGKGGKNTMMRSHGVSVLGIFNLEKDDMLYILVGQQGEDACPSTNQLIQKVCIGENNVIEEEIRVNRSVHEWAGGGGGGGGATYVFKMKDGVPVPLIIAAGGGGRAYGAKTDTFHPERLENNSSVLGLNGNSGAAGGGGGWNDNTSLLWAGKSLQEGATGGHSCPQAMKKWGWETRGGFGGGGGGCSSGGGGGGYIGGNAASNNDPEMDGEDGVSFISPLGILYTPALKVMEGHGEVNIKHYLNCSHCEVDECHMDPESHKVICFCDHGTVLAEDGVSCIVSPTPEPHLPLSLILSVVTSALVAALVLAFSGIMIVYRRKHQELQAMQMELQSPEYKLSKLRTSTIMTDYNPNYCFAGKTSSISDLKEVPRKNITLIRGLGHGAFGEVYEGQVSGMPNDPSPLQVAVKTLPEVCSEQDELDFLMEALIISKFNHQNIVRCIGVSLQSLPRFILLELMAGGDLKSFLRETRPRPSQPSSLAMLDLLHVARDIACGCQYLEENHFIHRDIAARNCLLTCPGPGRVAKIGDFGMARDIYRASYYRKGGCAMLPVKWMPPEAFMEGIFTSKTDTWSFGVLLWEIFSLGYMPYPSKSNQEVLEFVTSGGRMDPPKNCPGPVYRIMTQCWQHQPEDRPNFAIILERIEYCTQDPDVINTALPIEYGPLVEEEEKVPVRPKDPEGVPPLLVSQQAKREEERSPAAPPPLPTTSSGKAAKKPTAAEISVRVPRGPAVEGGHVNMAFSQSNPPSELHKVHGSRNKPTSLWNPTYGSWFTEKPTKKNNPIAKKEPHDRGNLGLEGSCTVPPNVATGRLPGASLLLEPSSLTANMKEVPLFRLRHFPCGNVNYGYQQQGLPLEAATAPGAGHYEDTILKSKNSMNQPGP
Chain of NPM/ALK (Nucleophosmin/ALK tyrosine kinase receptor) (P06748 whole entry, further chain): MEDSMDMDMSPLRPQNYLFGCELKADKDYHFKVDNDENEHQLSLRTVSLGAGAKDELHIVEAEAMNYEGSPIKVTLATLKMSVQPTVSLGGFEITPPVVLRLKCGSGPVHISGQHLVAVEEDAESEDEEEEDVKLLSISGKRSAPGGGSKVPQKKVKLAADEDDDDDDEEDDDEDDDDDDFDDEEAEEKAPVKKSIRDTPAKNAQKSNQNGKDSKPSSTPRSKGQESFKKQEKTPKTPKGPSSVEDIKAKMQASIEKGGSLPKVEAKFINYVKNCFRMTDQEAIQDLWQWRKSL
Chain of ALK tyrosine kinase receptor (Q9UM73 whole entry): as the sequence (Q9UM73 whole entry) above

SMILES: CN1CCN(c2ccc(Nc3ncc4ccc(-c5ccccc5NS(C)(=O)=O)n4n3)cc2)CC1
IC50 [1]: 0.26 µM | IC50 (Insulin receptor): 1.87 µM

SMILES: COc1cc(N2CCN(C)CC2)ccc1Nc1ncc2ccc(-c3ccccc3OC)n2n1
IC50 [1]: 0.009 µM | IC50 (Insulin receptor): 0.391 µM | IC50 [2]: 0.1 µM

SMILES: COc1cc(N2CCN(C[C@H](C)O)CC2)ccc1Nc1ncc2ccc(-c3ccccc3OC)n2n1
IC50 [1]: 0.005 µM | IC50 (Insulin receptor): 0.206 µM | IC50 [2]: 0.1 µM | bioavailability [3]: 8%

SMILES: COc1cc(N2CCN(N3CCOCC3)CC2)ccc1Nc1ncc2ccc(-c3ccccc3OC)n2n1
IC50 [1]: 0.009 µM | IC50 (Insulin receptor): 0.357 µM | IC50 [2]: 0.085 µM | bioavailability [3]: 34% | inhibition in vivo at 30 mg/kg [4]: 60% | inhibition in vivo at 55 mg/kg [5]: 98% | Activity (Mus musculus [6]): Non-toxic | Activity (Mus musculus [7]): Non-toxic | Activity (Mus musculus [8]): Non-toxic

SMILES: COc1cc(N2CCN(C)CC2)ccc1Nc1ncc2ccc(-c3ccccc3N(C)S(C)(=O)=O)n2n1
IC50 [1]: 0.009 µM | IC50 (Insulin receptor): 0.934 µM | IC50 [2]: 0.2 µM

SMILES: COc1cc(N2CCN(C[C@H](C)O)CC2)ccc1Nc1ncc2ccc(-c3ccccc3N(C)S(C)(=O)=O)n2n1
AUC [9]: 2.52 µg·h/mL | AUC [10]: 0.61 µg·h/mL | bioavailability [11]: 36% | bioavailability [12]: 38% | inhibition in vivo at 30 mg/kg [13]: 75% | concentration at 2 h [14]: 1440 ng/g | concentration at 6 h [15]: 792 ng/g | concentration at 12 h [16]: 235 ng/g | concentration at 24 h [17]: < 30 ng/g | concentration at 2 h [18]: 2.16 µg/mL | concentration at 6 h [19]: 0.95 µg/mL | concentration at 12 h [20]: 0.155 µg/mL | concentration at 24 h [21]: < 0.01 µg/mL | concentration at 2 h [22]: 1530 ng/g | concentration at 2 h [23]: 3120 ng/g | concentration at 2 h [24]: 0.516 µg/mL | concentration at 2 h [25]: 1.58 µg/mL | concentration at 2 h [26]: 2.89 µg/mL | bioavailability [3]: 38% | inhibition in vivo at 10 mg/kg [27]: 35% | inhibition in vivo at 30 mg/kg [4]: 81% | inhibition in vivo at 55 mg/kg [5]: 98% | IC50 (KARPAS-299): 0.477 µM | IC50 [28]: 0.087 µM | Papp A→B [29]: 203 nm/s | Vd [30]: 2.1 L/kg | Vd [31]: 3.3 L/kg | AUC [32]: 0.661 µg·h/mL | AUC [33]: 0.343 µg·h/mL | Tmax [34]: 1 h | Tmax [35]: 2 h

More lines, main results first:

IC50 [1]: 0.0038 µM | IC50 (Insulin receptor): 0.16 µM | IC50 [2]: 0.08 µM | bioavailability [3]: 6%
SMILES: COc1cc(N2CCN(C[C@@H](C)O)CC2)ccc1Nc1ncc2ccc(-c3ccccc3OC)n2n1

bioavailability [3]: 41%
SMILES: COc1cc(N2CCN(C[C@@H](C)O)CC2)ccc1Nc1ncc2ccc(-c3ccccc3N(C)S(C)(=O)=O)n2n1

IC50 [1]: 0.007 µM | IC50 (Insulin receptor): 0.809 µM | IC50 [2]: 0.05 µM | bioavailability [3]: 47%
SMILES: COc1cc(N2CCC(N3CCOCC3)CC2)ccc1Nc1ncc2ccc(-c3ccccc3N(C)S(C)(=O)=O)n2n1
inhibition in vivo at 30 mg/kg [4]: 50% | inhibition in vivo at 55 mg/kg [5]: 96% | Activity (Mus musculus [6]): Non-toxic | Activity (Mus musculus [7]): Non-toxic | Activity (Mus musculus [8]): Non-toxic
